Results as given in US20230143604A1, “QW DOSING OF GIP RECEPTOR AGONIST PEPTIDE COMPOUNDS AND USES THEREOF” (TAKEDA PHARMACEUTICAL COMPANY LIMITED, priority 2020, published 2023).
Where two headings read alike, the source gives them in different places.

How the values were obtained:
physchem = experiment: physchem
How it was run: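 3 mg of peptide treated with 100 μL portions of 200 mM phosphate buffer pH 7.4, sonicating/vortexing up to 1 min, with further buffer added until fully dissolved. Solubility then quantified by HPLC.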

human GLP-1R = target: T1, human GLP-1R (Homo sapiens, UniProt P43220); experiment: Human GLP1R agonist activity, intracellular cAMP accumulation; format: cell-based; conditions: HEK-293T cells overexpressing human GLP-1R, 1 hr
T1 construct: HEK-293T cells overexpressing full-length human GLP-1R; FLAG (N); host or cells: HEK-293T
T1 sequence (P43220 24-463): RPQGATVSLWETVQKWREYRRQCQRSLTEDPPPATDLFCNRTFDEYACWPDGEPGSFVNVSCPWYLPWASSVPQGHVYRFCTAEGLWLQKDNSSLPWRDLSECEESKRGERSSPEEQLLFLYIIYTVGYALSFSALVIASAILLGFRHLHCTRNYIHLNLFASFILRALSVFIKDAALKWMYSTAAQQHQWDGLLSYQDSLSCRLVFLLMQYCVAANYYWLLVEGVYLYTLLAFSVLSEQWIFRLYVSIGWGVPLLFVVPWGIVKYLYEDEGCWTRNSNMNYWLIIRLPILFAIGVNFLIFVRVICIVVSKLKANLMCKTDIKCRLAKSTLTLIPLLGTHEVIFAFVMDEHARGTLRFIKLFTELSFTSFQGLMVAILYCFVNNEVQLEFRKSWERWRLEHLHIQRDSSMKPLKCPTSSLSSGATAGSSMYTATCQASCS
Protocol: Cells are cultured per the manufacturer's protocol in DMEM with 10% fetal bovine serum and 1 μg/mL puromycin and stored in frozen aliquots to be used as assay ready cells. On the day of the assay, cells are removed from frozen storage, washed two times in 1× Kreb's Ringer Buffer (Zenbio, Research Triangle Park, N.C.), and re-suspended to a concentration of 4×10^5 cells/mL in 1× Kreb's Ringer Buffer. […] Cells are incubated with test compound for 1 hr at room temperature in the dark, and cAMP accumulation is measured using the Cisbio HiRange cAMP assay kit (Bedford, Mass.) per the manufacturer's protocol. Anti-cAMP antibody and d2-cAMP tracer reagents diluted in lysis/detection buffer are incubated in the dark for 1 hr, and results are measured on an Envision plate reader (Perkin Elmer, Waltham, Mass.). Data is normalized using 1 nm GLP-1 as 100% activity, and DMSO alone as 0% activity.

[1] = read-out: Human GLP1R cAMP EC50, HEK293T

Structure (SMILES) | solubility (physchem; pH 7.4) [mg/mL] | solubility (physchem; pH 7.4, aqueous buffer) [mg/mL] | EC50 (human GLP-1R; [1]) [nM] | solubility (physchem; pH 7.4, aqueous buffer, pH 7.4 Phosphate Buffer - Solubility, 200 mM Phosphate buffer pH 7.4) [mg/mL] | solubility (physchem; pH 7.4, solubility in phosphate buffer at pH 7.4, 200 mM phosphate buffer pH 7.4) [mg/mL] | EC50 (human GLP-1R; Human GLP1R cAMP EC50, HEK293T (nM)) [nM]
CC[C@H](C)[C@H](NC(=O)[C@H](CO)NC(=O)[C@H](Cc1ccc(O)cc1)NC(=O)[C@H](CC(=O)O)NC(=O)[C@H](CO)NC(=O)[C@@H](NC(=O)[C@H](Cc1ccccc1)NC(=O)[C@@H](NC(=O)CNC(=O)[C@H](CCC(=O)O)NC(=O)C(C)(C)NC(=O)[C@H](Cc1ccc(O)cc1)NC)[C@@H](C)O)[C@@H](C)CC)C(=O)N[C@@H](C)C(=O)N[C@@H](CCCCNC(=O)CNC(=O)CNC(=O)CNC(=O)CNC(=O)CNC(=O)CCCCCCCCCCCCCCCCC(=O)O)C(=O)N[C@@H](CC(=O)O)C(=O)N[C@@H](CCCCN)C(=O)NC(C)(C)C(=O)N[C@@H](C)C(=O)N[C@@H](CCC(N)=O)C(=O)NC(C)(C)C(=O)N[C@@H](CC(=O)O)C(=O)N[C@@H](Cc1ccccc1)C(=O)N[C@H](C(=O)N[C@@H](CC(N)=O)C(=O)N[C@@H](Cc1c[nH]c2ccccc12)C(=O)N[C@@H](CC(C)C)C(=O)N[C@@H](CC(C)C)C(=O)N[C@@H](C)C(=O)N[C@@H](CCC(N)=O)C(=O)N[C@@H](CCCCN)C(=O)NCC(=O)O)C(C)C [Compound 76] | ≥ 15 | ≥ 30 | 28.8 |  |  | 
CC[C@H](C)[C@H](NC(=O)[C@H](Cc1ccccc1)NC(=O)[C@@H](NC(=O)CNC(=O)[C@H](CCC(=O)O)NC(=O)C(C)(C)NC(=O)[C@H](Cc1ccc(O)cc1)NC)[C@@H](C)O)C(=O)N[C@@H](CO)C(=O)N[C@@H](CC(=O)O)C(=O)N[C@@H](Cc1ccc(O)cc1)C(=O)N[C@@H](CO)C(=O)N[C@H](C(=O)NC(C)(C)C(=O)N[C@@H](CC(C)C)C(=O)N[C@@H](CC(=O)O)C(=O)N[C@@H](CO)C(=O)N[C@@H](CCCCNC(=O)CNC(=O)CNC(=O)CNC(=O)CNC(=O)CNC(=O)CCCCCCCCCCCCCCCCC(=O)O)C(=O)N[C@@H](C)C(=O)N[C@@H](CCC(N)=O)C(=O)NC(C)(C)C(=O)N[C@@H](CC(=O)O)C(=O)N[C@@H](Cc1ccccc1)C(=O)N[C@H](C(=O)N[C@@H](CC(N)=O)C(=O)N[C@@H](Cc1c[nH]c2ccccc12)C(=O)N[C@@H](CC(C)C)C(=O)N[C@@H](CC(C)C)C(=O)N[C@@H](C)C(=O)N[C@@H](CCC(N)=O)C(=O)N[C@@H](CCCCN)C(=O)NCC(=O)O)C(C)C)[C@@H](C)CC [Compound 77] | ≥ 15 | ≥ 30 | 17 |  |  | 
CC[C@H](C)[C@H](NC(=O)[C@H](Cc1ccccc1)NC(=O)[C@@H](NC(=O)CNC(=O)[C@H](CCC(=O)O)NC(=O)C(C)(C)NC(=O)[C@H](Cc1ccc(O)cc1)NC)[C@@H](C)O)C(=O)N[C@@H](CO)C(=O)N[C@@H](CC(=O)O)C(=O)N[C@@H](Cc1ccc(O)cc1)C(=O)N[C@@H](CO)C(=O)N[C@H](C(=O)NC(C)(C)C(=O)N[C@@H](CCCCNC(=O)CNC(=O)CNC(=O)CNC(=O)CNC(=O)CNC(=O)CCCCCCCCCCCCCCCC(=O)O)C(=O)N[C@@H](CC(=O)O)C(=O)N[C@@H](CCCNC(=N)N)C(=O)NC(C)(C)C(=O)N[C@@H](C)C(=O)N[C@@H](CCC(N)=O)C(=O)NC(C)(C)C(=O)N[C@@H](CC(N)=O)C(=O)N[C@@H](Cc1ccccc1)C(=O)N[C@H](C(=O)N[C@@H](CC(N)=O)C(=O)N[C@@H](Cc1c[nH]c2ccccc12)C(=O)N[C@@H](CC(C)C)C(=O)N[C@@H](CC(C)C)C(=O)N[C@@H](C)C(=O)N[C@@H](CCC(N)=O)C(=O)N[C@@H](CO)C(=O)N1CCC[C@H]1C(=O)N[C@@H](CO)C(=O)N[C@@H](CO)C(=O)NCC(=O)N[C@@H](C)C(=O)N1CCC[C@H]1C(=O)N1CCC[C@H]1C(=O)N1CCC[C@H]1C(=O)N[C@@H](CO)C(=O)O)C(C)C)[C@@H](C)CC [Compound 95] |  |  |  | ≥ 60 | ≥ 15 | 17.4
